Tests used:
[1] = tested on: egocentric spatial learning; assay: Water cross maze test of egocentric spatial learning; conditions: probe test after 3 days learning; lentivirus injected into striatum after drug addiction
SYNCRIP [2] = assay: SYNCRIP expression in brain striatum by qPCR; conditions: drug addiction animal model (MA) vs control group
hyperactivity = assay: Open field test of methamphetamine-induced hyperactivity; assay type: in vivo, mouse; conditions: open field 20 min after methamphetamine 4.0 mg/kg
Description: Before methamphetamine injection into each animal model, an open field test was conducted for 20 min to measure the activity of the animal model, which was used as a baseline.
4.0 mg/kg of methamphetamine was administered to the control group (Comparative group 1) and an open field test was again conducted for 20 min to measure the activity of the animal model.
4.0 mg/kg of methamphetamine was administered to the drug addiction animal model (MA) (Comparative group 2) and an open field test was again conducted for 20 min to measure the activity of the animal model.
Finally, the activity of each group was compared with the baseline and the activity increase was expressed as a percentage relative to the baseline.

SYNCRIP [3] = assay: SYNCRIP expression in brain striatum by Western blotting; conditions: drug addiction animal model (MA) vs control group
miR-137 [4] = assay: Serum miR-137 (qPCR) in mild drug-addicted animal model with striatal SYNCRIP overexpression; conditions: mild drug addiction: methamphetamine 1.0 mg/kg i.p. once every other day for 2 weeks; lentivirus into striatum 4 weeks before
miR-137 [5] = assay: miR-137 expression (qPCR) in striatum and serum of methamphetamine drug addiction animal model; conditions: drug addiction animal model (MA) vs control group, gradual ramp-up protocol, one week withdrawal
miR-137 [6] = assay: Serum miR-137 (qPCR) in drug-addicted (gradual ramp-up) animal model with striatal SYNCRIP overexpression; conditions: gradual ramp-up methamphetamine protocol, one week withdrawal; lentivirus into striatum 4 weeks before

SMILES: CN[C@@H](C)Cc1ccccc1 [methamphetamine]
- egocentric spatial learning (percent of mice) [1]: abnormally enhanced
- expression level of SYNCRIP in brain striatum (qPCR) (SYNCRIP [2]): decreased but was significantly higher
- hyperactivity (activity increase relative to baseline) (hyperactivity): significantly increased
- expression level of SYNCRIP in brain striatum (Western blotting) (SYNCRIP [3]): decreased to a significantly lower level
- expression level of serum miR-137 (miR-137 [4]): significantly low
- expression level of miR-137 in serum (miR-137 [5]; serum): significantly low
- expression level of miR-137 in striatum (miR-137 [5]; striatum): significantly high
- expression level of miR-137 in serum (miR-137 [6]): significantly reduced
